Test results published in patent US20170008928A1, “NOVEL PEPTIDES AND PEPTIDE DERIVATIVES AND USES THEREOF” (Novo Nordisk A/S, priority 2015, published 2017).
Read-outs that look alike come from different tables or passages of the source. Starred links: 1 amine or outer side, 2 acyl side, 3 side chain; linkers in the order of their positions; H or OH if unused. Non-standard residues stand in square brackets, D forms with d. Residues, ends and D or L forms follow the SMILES beside them. *: point of attachment. Phe(4-CH2SO3H) = N[C@@H](Cc1ccc(CS(=O)(=O)O)cc1)C(=O)O; sY = N[C@@H](Cc1ccc(OS(=O)(=O)O)cc1)C(=O)O; C18 diacid = O=C(O)CCCCCCCCCCCCCCCCC(=O)*; d(βAsp) = O=C(O)[C@@H](CC(=O)[*:2])N[*:1]; γGlu = O=C(O)[C@H](CCC(=O)[*:2])N[*:1]; Met(O2) = CS(=O)(=O)CC[C@H](N)C(=O)O; NMeF = CN[C@@H](Cc1ccccc1)C(=O)O; dNMeD = CN[C@H](CC(=O)O)C(=O)O; Nle = CCCC[C@H](N)C(=O)O; AEEA = NCCOCCOCC(=O)O

Legend:
[1] = target: T1, human cholecystokinin-2 receptor (CCK-2R) (Homo sapiens, UniProt P32239); test: In vitro potency on CCK-2R, whole cell functional assay (IP1 accumulation, IP-One HTRF); format: cell-based
T1 construct: host or cells: 1321-N1 cells (plasma membranes prepared by Evotec AG Hamburg)
T1 sequence (P32239 1-447): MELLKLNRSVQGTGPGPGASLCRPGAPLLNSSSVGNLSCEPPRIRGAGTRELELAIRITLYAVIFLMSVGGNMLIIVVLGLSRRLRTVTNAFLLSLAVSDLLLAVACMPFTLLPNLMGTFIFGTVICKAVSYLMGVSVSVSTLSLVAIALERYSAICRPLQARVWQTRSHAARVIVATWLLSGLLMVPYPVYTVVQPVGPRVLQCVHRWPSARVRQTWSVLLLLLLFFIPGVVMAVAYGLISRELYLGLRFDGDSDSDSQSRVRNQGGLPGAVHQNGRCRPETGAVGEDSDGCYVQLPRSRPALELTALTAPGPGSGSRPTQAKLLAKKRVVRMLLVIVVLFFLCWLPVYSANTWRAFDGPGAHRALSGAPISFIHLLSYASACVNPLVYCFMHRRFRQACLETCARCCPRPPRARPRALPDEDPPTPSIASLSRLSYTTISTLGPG

[2] = target: T1, human cholecystokinin-2 receptor (CCK-2R); test: In vitro receptor binding to CCK-2R, SPA displacement of [125I]-CCK-8s from plasma membranes
[3] = target: T2, human cholecystokinin-1 receptor (CCK-1R) (Homo sapiens, UniProt P32238); test: In vitro receptor binding to CCK-1R, SPA displacement of [125I]-CCK-8s from plasma membranes
T2 construct: host or cells: 1321-N1 cells
T2 sequence (P32238 1-428): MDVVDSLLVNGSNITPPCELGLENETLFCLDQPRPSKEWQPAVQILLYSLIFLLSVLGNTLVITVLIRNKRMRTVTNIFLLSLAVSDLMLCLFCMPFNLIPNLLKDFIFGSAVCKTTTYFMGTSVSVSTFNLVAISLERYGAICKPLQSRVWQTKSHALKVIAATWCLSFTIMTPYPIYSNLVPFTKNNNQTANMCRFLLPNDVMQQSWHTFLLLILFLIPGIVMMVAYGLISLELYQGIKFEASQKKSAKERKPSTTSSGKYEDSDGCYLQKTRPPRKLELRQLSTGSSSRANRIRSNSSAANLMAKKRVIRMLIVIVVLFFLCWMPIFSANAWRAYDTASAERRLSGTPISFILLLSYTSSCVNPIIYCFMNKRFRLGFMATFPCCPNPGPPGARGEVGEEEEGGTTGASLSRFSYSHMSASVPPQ
Experimental: The in vitro binding affinity is a measure of the strength of attraction between a receptor and its ligand.
Displacement of radio ligand was measured as reduction in light emission from SPA beads.
The cells used in these assays were 1321-N1 cells stably expressing the CCK-1R or the CCK-2R (Perkin Elmer product numbers ES-530-A and ES-531-A, respectively see www.perkinelmer.com/Catalog/Product/ID/ES-530-A or -ES-531-A, respectively).
The cells were cultured in an incubator (95% RH (relative humidity), 5% (of standard atmospheric pressure) CO2, 37° C.) in cell culture medium (DMEM (Lonza catalogue BE-12-604F/U1), with 10% (v/v) Foetal Calf Serum (FCS, Gibco catalogue 16140-071), 1% (w/w) Sodium pyruvate (Gibco catalogue 11360-039), 500 μg/ml Geneticin® (G418) (Gibco catalogue 10131-027), 25 μg/ml Zeocin™ (Invitrogen catalogue R250-05), 1% (w/w) Pen/Strep (Gibco catalogue 15140-122)).
Plasma membranes were prepared by Evotec AG Hamburg by use of the ParrBomb (#4635, Parr Instrument Company). Cells were lysed with a lysis buffer (50 mM Tris, 2.5 mM EDTA, pH7) with added protease inhibitors (Complete Proteaseinhibitors EDTA-free (#05056489001, Roche), 1 tablet per 50 mL lysis buffer). The membrane fraction was separated by centrifugation. First, the cell lysate was centrifuged at 1000×g for 10 minutes at 4° C. The pellet was discarded and the supernatant was then centrifuged at 100.000×g for 30 minutes at 4° C. The supernatant was discarded and the pellet was re-suspended in 1 ml/5×10^8 cells ice cold membrane buffer (50 mM Tris, 320 mM Sucrose and Complete Proteaseinhibitors EDTA-free (#05056489001, Roche); pH7.4) and homogenised with dounce homogeniser. The protein concentration was determined using the Pierce™ BCA Protein Assay Kit according to kit manual, and the membrane preparation was adjust to the desired protein concentration with membrane buffer and aliquoted into pre-cooled tubes, snap-frozen in liquid nitrogen, and stored at −80° C.
CCK receptor binding assays were performed in 96-well Optiplates (Cat #6005290, PerkinElmer, Waltham, Mass., USA) in a total volume of 200 μl per well. CCK derivatives in 80% DMSO stock solutions of 800 μM were serially diluted […] in assay buffer (50 mM Tris/HCl, 4.5 mM MgCl2, […], 0.02% Tween 20, 0.25% ovalbumin, 0.1% pluronic F-68, pH 7.4) to final assay concentrations ranging from 10^−5 M (ten μM) to 10^−12 M (one pM).
Fifty μl of reference or test compounds were added to the Optiplates (using technical duplicates, i.e. two wells of each sample, one data point being the average of two wells), followed by addition of 150 μl of the mixture of SPA bead, radio ligand, and plasma membrane. The plates were sealed and incubated in the dark at +22° C. for 2 hours on a IKA MTS plate shaker (IKA-Werke D-79219 Staufen) set at 300 rpm and thereafter centrifuged at 1500 rpm for 10 minutes in a Heraeus Multifuge 3s centrifuge. SPA bead light emission was measured in a TopCount NXT (PerkinElmer) for 2 min/well after a delay of 60 min.
As a measure of compound affinity, calculations were performed in order to determine the half maximal inhibitory concentration (the IC50 value).
The data from the TopCounter were given as counts per minute (CPM). The CPM was plotted as a function of the concentration of compound. Dose-response curves were obtained, and IC50 values were calculated, by a nonlinear three-parameter logistic equation (log(agonist) vs response) with hillslope=−1, and shared top and bottom using the software programme GraphPad Prism v 6.0 (Graph Pad software, La Jolla, Calif., USA). The highest dose tested was 10^−5 M (1×10^7 pM).
The preference of a specific compound for the CCK-1 receptor, or the CCK-1R selectivity, may be defined as IC50 (CCK-2R)/IC50 (CCK-1R).
A minimum of three biological replicates was measured for each test compound on separate assay plates.

[4] = target: T2, human cholecystokinin-1 receptor (CCK-1R); test: In vitro potency on CCK-1R, whole cell functional assay (IP1 accumulation, IP-One HTRF); format: cell-based
[5] = 1321-N1 cells stably expressing CCK-2R, IP1 accumulation, highest dose tested 1×10^6 pM, read-out: EC50 (CCK-2R)
[6] = displacement of [125I]-CCK-8s, plasma membranes of 1321-N1 cells expressing CCK-2R, highest dose tested 1×10^7 pM, read-out: IC50 (CCK-2R)
[7] = displacement of [125I]-CCK-8s, plasma membranes of 1321-N1 cells expressing CCK-1R, read-out: IC50 (CCK-1R)

Compound | EC50 [1, 5] | IC50 [2, 6] | IC50 [3, 7] | further results
CC(C)C[C@H](NC(=O)[C@H](Cc1ccc(OS(=O)(=O)O)cc1)NC(=O)[C@@H](N)CC(=O)O)C(=O)NCC(=O)N[C@@H](Cc1c[nH]c2ccccc12)C(=O)N[C@@H](CCS(C)(=O)=O)C(=O)N(C)[C@H](CC(=O)O)C(=O)N(C)[C@@H](Cc1ccccc1)C(N)=O [Example 63, Asp-sTyr-Leu-Gly-Trp-Met(O2)-DMeAsp-MePhe-amide] (H-D[sY]LGW[Met(O2)][dNMeD][NMeF]-NH2) | > 1000 nM |  |  | IC50 [2]: > 10000 nM; IC50 [3]: 0.54 nM
CCCC[C@H](NC(=O)[C@H](Cc1ccc(CS(=O)(=O)O)cc1)NC(=O)[C@H](CC(=O)O)NC(=O)COCCOCCNC(=O)[C@H](CCCCN)NC(=O)COCCOCCNC(=O)COCCOCCNC(=O)CC[C@H](NC(=O)CCCCCCCCCCCCCCCCC(=O)O)C(=O)O)C(=O)NCC(=O)N[C@@H](Cc1c[nH]c2ccccc12)C(=O)N[C@@H](CCCC)C(=O)N(C)[C@H](CC(=O)O)C(=O)N(C)[C@@H](Cc1ccccc1)C(N)=O [Example 19, 2-[2-[2-[[2-[2-[2-[[(4S)-4-Carboxy-4-(17-carboxyheptadecanoylamino)butanoyl]amino]ethoxy]ethoxy]acetyl]amino]ethoxy]ethoxy]acetyl-Lys-2-[2-(2-aminoethoxy)ethoxy]acetyl-Asp-Phe(4-sulfomethyl)-Nle-Gly-Trp-Nle-DMeAsp-MePhe-amide] ({C18 diacid-γGlu-AEEA-AEEA}-K[AEEA]D[Phe(4-CH2SO3H)][Nle]GW[Nle][dNMeD][NMeF]-NH2) |  |  |  | EC50 [4]: 0.21 nM
CCCC[C@H](NC(=O)[C@H](Cc1c[nH]c2ccccc12)NC(=O)CNC(=O)[C@H](CCCNC(=N)N)NC(=O)[C@H](Cc1ccc(OS(=O)(=O)O)cc1)NC(=O)[C@@H](N)CC(=O)O)C(=O)N(C)[C@H](CC(=O)O)C(=O)N(C)[C@@H](Cc1ccccc1)C(N)=O [Example 68, Asp-sTyr-Arg-Gly-Trp-Nle-DMeAsp-MePhe-amide] (H-D[sY]RGW[Nle][dNMeD][NMeF]-NH2) |  |  |  | EC50 ([4]; 1321-N1 cells stably expressing CCK-1R, IP1 accumulation, average of min. three replicates, read-out: EC50 (CCK-1R)): 0.21 nM
CC(C)C[C@H](NC(=O)[C@H](Cc1ccc(OS(=O)(=O)O)cc1)NC(=O)[C@H](CC(=O)O)NC(=O)COCCOCCNC(=O)COCCOCCNC(=O)CC[C@H](NC(=O)CCCCCCCCCCCCCCCCC(=O)O)C(=O)O)C(=O)NCC(=O)N[C@@H](Cc1c[nH]c2ccccc12)C(=O)N[C@@H](C)C(=O)N(C)[C@H](CC(=O)O)C(=O)N(C)[C@@H](Cc1ccccc1)C(N)=O [Example 40, 2-[2-[2-[[2-[2-[2-[[(4S)-4-Carboxy-4-(17-carboxyheptadecanoylamino)butanoyl]amino]ethoxy]ethoxy]acetyl]amino]ethoxy]ethoxy]acetyl-Asp-sTyr-Leu-Gly-Trp-Ala-DMeAsp-MePhe-amide] ({C18 diacid-γGlu-AEEA-AEEA}-D[sY]LGWA[dNMeD][NMeF]-NH2) |  |  |  | EC50 [1]: 880 nM; IC50 [2]: > 10000 nM; IC50 [3]: 0.65 nM
CCCC[C@H](NC(=O)[C@H](Cc1ccc(CS(=O)(=O)O)cc1)NC(=O)[C@@H](CC(=O)O)NC(=O)COCCOCCNC(=O)COCCOCCNC(=O)CC[C@H](NC(=O)CCCCCCCCCCCCCCCCC(=O)O)C(=O)O)C(=O)NCC(=O)N[C@@H](Cc1c[nH]c2ccccc12)C(=O)N[C@@H](CCCC)C(=O)N(C)[C@H](CC(=O)O)C(=O)N(C)[C@@H](Cc1ccccc1)C(N)=O [Example 25, 2-[2-[2-[[2-[2-[2-[[(4S)-4-Carboxy-4-(17-carboxyheptadecanoylamino)butanoyl]amino]ethoxy]ethoxy]acetyl]amino]ethoxy]ethoxy]acetyl-DAsp-Phe(4-sulfomethyl)-Nle-Gly-Trp-Nle-DMeAsp-MePhe-amide] ({C18 diacid-γGlu-AEEA-AEEA}-[dD][Phe(4-CH2SO3H)][Nle]GW[Nle][dNMeD][NMeF]-NH2) | > 1000 nM | > 10000 nM | 0.072 nM | 
CCCC[C@H](NC(=O)[C@H](Cc1c[nH]c2ccccc12)NC(=O)CNC(=O)[C@H](CC(C)C)NC(=O)[C@H](Cc1ccc(OS(=O)(=O)O)cc1)NC(=O)[C@@H](N)CCC(=O)O)C(=O)N(C)[C@H](CC(=O)O)C(=O)N[C@@H](Cc1ccccc1)C(N)=O [Example 90, Glu-sTyr-Leu-Gly-Trp-Nle-DMeAsp-Phe-amide] (H-E[sY]LGW[Nle][dNMeD]F-NH2) | > 1000 nM | > 10000 nM | 0.029 nM | 
CCCC[C@H](NC(=O)[C@H](Cc1ccc(CS(=O)(=O)O)cc1)NC(=O)C[C@@H](NC(=O)COCCOCCNC(=O)COCCOCCNC(=O)CC[C@H](NC(=O)CCCCCCCCCCCCCCCCC(=O)O)C(=O)O)C(=O)O)C(=O)NCC(=O)N[C@@H](Cc1c[nH]c2ccccc12)C(=O)N[C@@H](CCCC)C(=O)N(C)[C@H](CC(=O)O)C(=O)N(C)[C@@H](Cc1ccccc1)C(N)=O [Example 27, 2-[2-[2-[[2-[2-[2-[[(4S)-4-Carboxy-4-(17-carboxyheptadecanoylamino)butanoyl]amino]ethoxy]ethoxy]acetyl]amino]ethoxy]ethoxy]acetyl-DbAsp-Phe(4-sulfomethyl)-Nle-Gly-Trp-Nle-DMeAsp-MePhe-amide] ({C18 diacid-γGlu-AEEA-AEEA-d(βAsp)}-[Phe(4-CH2SO3H)][Nle]GW[Nle][dNMeD][NMeF]-NH2) | > 1000 nM | > 10000 nM | 0.13 nM | 
